Patent US5271944A, “Pharmacologically enhanced formulations” (Biofor, Ltd., priority 1991, dated 1993)

Columns and labels:
acetylcholine writhing = test: mouse acetylcholine writhing test (analgesic activity); type: in vivo, mouse (CD-1); details: 1 mg/kg oral, 4 hours before intraperitoneal acetylcholine; writhes counted for 10 minutes
Description: This study was performed to evaluate and compare the analgesic effectiveness of the micronized and pulverized samples described in Example 1, Step A and Example 1, Step B. Analgesic activity was evaluated via the mouse acetylcholine writhing test using a modification of the procedure described by Collier et al in Nature (New Biol.), Volume 204: page 1316 (1964) and the British Journal of Pharmacology, Chemotherapy, Volume 32: page 295 (1968).
The test groups consisted of ten mile CD-1 mice (Charles River Laboratories) weighing 18-28 grams each. Test compounds suspended in 0.25% methylcellulose solution were administered orally by gavage and four hours later the mice were injected intraperitoneally with acetylcholine (0.55 mg/ml in 0.25% methyl cellulose). The number of writhes in each group of mice were counted for 10 minutes immediately following the injection of acetylcholine and percent inhibition was calculated as follows: […]

hind paw edema = test: Anti-inflammatory activity: hind paw edema in adjuvant (Mycobacterium butyricum) arthritis rats; type: in vivo, rat (female Lewis); details: 1 mg/kg per day, dosed once daily for 4 days, paw volumes measured on fifth day
Description: The effectiveness of the micronized sample as an anti-inflammatory agent and its comparison to the pulverized form was evaluated.
This study is a modification of the method described by Wong, et al in the Journal of Pharmacology and Experimental Therapeutics, Vol. 185: No. 1, pages 127-138 (1973).
The left and right rear paws of female Lewis rats (Charles River Laboratories) weighing 160-180 grams each were measured by mercury displacement prior to injection (Day Zero).
Adjuvant arthritis was induced in this rat colony by subcutaneous injection of Mycobacterium butyricum (0.75 mg in 0.1 ml light mineral oil, Fisher) using an automated Cornwall syringe. On days 11-15 post-adjuvant, the injected animals with 0.25 to 0.76 ml paw edema were selected and distributed evenly, according to edema size, into control and experimental groups of ten rats each. Vehicle control and drug treatments were assigned to the groups at random. […] All animals were dosed once daily for 4 days and on the fifth day both hind paw volumes were again measured using mercury displacement.
The hind paw edema was determined for each rat by subtracting the hind paw volume measured on Day Zero from the hind paw volume measured on the fifth day of the study. Group means were determined and the drug effect was calculated as percent inhibition of the hind paw edema according to the following equation: […]

adjuvant polyarthritis = test: Adjuvant polyarthritis in polyarthritic injected rats (hind feet weight); type: in vivo, rat (male Lewis); details: for ED50: oral once daily for 5 days (Days 9-13), hind feet weighed Day 15, 21600 min
Description: The object of this study was to compare the anti-inflammatory activity of the micronized and unmicronized samples when administered orally to polyarthritic injected rats.
This anti-inflammatory study was conducted according to the method described by Chang, Y., Pearson, C.M. and Abe, C. in Arthritis and Rheumatism, Volume 23: pp. 62-71 (1980).
Male Lewis rats weighing 200 to 220 grams were divided into groups of 5 and housed in hanging cages with food and water ad libitum. On Day Zero they were injected with 7.5 mg of N,N-dioctadecyl-N',N'bis(2-hydroxyethyl)propane diamine suspended in mineral oil subcutaneously at the base of the tail. On Day 9 the animals were weighed and compound administration was begun. The micronized and unmicronized samples described in Example 1, Steps A and B, were suspended in solution using a tissue homogenizer in 1% carboxy methyl cellulose. These compounds were administered orally once daily for 5 days (Days 9-13) with no dosing on day 14. On Day 15, the hind feet were removed just above the ankle joint and weighed, and percent difference from the diseased control was calculated.

Structure (SMILES) | % Inhibition (acetylcholine writhing assay) (acetylcholine writhing) [%] | % Inhibition (hind paw edema) (hind paw edema; listed as Example 1, Step B micronized) [%] | ED50 (adjuvant polyarthritis) [mg/kg] | increase in potency of micronized compared to unmicronized sample (adjuvant polyarthritis; ratio of ED50, adjuvant polyarthritis) | % Inhibition (hind paw edema) (hind paw edema) [%] | degree of increase in anti-inflammatory effectiveness attributable to micronization vs unmicronized product (adjuvant polyarthritis; general statement, test not named)
CN1OCCC(=Cc2cc(C(C)(C)C)c(O)c(C(C)(C)C)c2)C1=O [Example 1, Step A, dihydro-4-(3,5-di-tert-butyl-4-hydroxy-benzylidene)-2-methyl-2H-1,2-oxazin-3(4H)-one] | 100 | 35 | 2.8 | almost six fold increase in potency | – | –
CN1OCCC(=Cc2cc(C(C)(C)C)c(O)c(C(C)(C)C)c2)C1=O [Example 1, Step B, dihydro-4-(3,5-di-tert-butyl-4-hydroxy-benzylidene)-2-methyl-2H-1,2-oxazin-3(4H)-one] | 63 | – | 16.2 | – | 20 | –
CN1OCCC(=Cc2cc(C(C)(C)C)c(O)c(C(C)(C)C)c2)C1=O [active ingredient, dihydro-4-(3,5-di-tert-butyl-4-hydroxybenzylidene)-2-methyl-2H-1,2-oxazin-3(4H)-one] | – | – | – | – | – | at least six fold
